Assay results: ChEMBL document CHEMBL2321830 (J Med Chem, 2013)
Changes are numbered by the printed parent chain.

Assays:
[1] = molecular target: T1, Aldo-keto reductase family 1 member C2 (Homo sapiens, UniProt P52895); test: Inhibition of human recombinant AKR1C2-mediated NADP+-dependent oxidation of S-(+)-1,2,3,4-tetrahydro-1-naphthol
T1 sequence (P52895 whole entry): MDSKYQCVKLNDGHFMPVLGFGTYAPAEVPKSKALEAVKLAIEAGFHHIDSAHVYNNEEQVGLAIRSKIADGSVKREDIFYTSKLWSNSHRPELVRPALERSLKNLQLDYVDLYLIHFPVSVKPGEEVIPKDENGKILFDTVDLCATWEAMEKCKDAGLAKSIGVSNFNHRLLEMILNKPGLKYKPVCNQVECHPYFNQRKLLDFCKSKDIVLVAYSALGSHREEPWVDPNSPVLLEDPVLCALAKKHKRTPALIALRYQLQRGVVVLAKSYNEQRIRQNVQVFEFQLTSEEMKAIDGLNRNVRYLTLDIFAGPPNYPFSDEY

[2] = molecular target: T2, Aldo-keto reductase family 1 member C3 (Homo sapiens, UniProt P42330); test: Inhibition of human recombinant AKR1C3-mediated NADP+-dependent oxidation of S-(+)-1,2,3,4-tetrahydro-1-naphthol
T2 sequence (P42330 whole entry): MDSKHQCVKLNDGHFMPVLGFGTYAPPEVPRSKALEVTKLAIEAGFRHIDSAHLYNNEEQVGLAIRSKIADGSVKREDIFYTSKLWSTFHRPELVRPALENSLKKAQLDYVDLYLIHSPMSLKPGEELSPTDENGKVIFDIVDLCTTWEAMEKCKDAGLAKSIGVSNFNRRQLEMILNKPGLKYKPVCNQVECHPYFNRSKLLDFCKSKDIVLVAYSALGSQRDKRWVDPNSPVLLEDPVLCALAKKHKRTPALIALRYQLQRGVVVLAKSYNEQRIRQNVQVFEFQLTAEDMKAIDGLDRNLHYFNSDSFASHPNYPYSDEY

[3] = molecular target: T3, Aldo-keto reductase family 1 member C1 (Homo sapiens, UniProt Q04828); test: Inhibition of human recombinant AKR1C1-mediated NADP+-dependent oxidation of S-(+)-1,2,3,4-tetrahydro-1-naphthol
T3 sequence (Q04828 whole entry): T1 sequence (P52895 whole entry) with V38T, H47R, V54L, S87C, M151V, H170R, L172Q

[4] = molecular target: T4, Aldo-keto reductase family 1 member C4 (Homo sapiens, UniProt P17516); test: Inhibition of human recombinant AKR1C4-mediated NADP+-dependent oxidation of S-(+)-1,2,3,4-tetrahydro-1-naphthol
T4 sequence (P17516 whole entry): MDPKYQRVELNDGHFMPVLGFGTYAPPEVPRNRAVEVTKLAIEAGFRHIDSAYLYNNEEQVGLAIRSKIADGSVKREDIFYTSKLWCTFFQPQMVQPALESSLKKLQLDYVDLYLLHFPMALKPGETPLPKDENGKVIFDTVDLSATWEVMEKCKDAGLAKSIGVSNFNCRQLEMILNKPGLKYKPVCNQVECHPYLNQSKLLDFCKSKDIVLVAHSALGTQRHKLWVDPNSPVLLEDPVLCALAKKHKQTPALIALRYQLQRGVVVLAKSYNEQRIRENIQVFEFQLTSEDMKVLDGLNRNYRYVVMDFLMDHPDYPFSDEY

Structure (SMILES)	IC50 [1] [µM]	IC50 [2] [µM]	IC50 [3] [µM]	IC50 [4] [µM]
COc1ccc2c(c1)c(CC(=O)NS(=O)(=O)C(F)(F)F)cn2C(=O)c1ccc(Cl)cc1	–	–	> 100	> 100
COc1ccc2c(c1)c1c(n2C(=O)c2ccc(Cl)cc2)CCC(C(=O)NS(C)(=O)=O)C1 (configuration not stated)	> 100	5.07	–	–
COc1ccc2c(c1)c(CC(=O)NS(=O)(=O)C(F)(F)F)c(C)n2C(=O)c1ccc(Cl)cc1	–	–	> 100	> 100
COC(=O)Cc1c(C)n(C(=O)c2ccc(C(F)(F)F)cc2)c2ccc(OC)cc12	> 100	15.7	–	–
COc1ccc2c(c1)c(CC(=O)O)cn2C(=O)c1ccc(C(F)(F)F)cc1	> 100	1.08	–	–
COC(=O)Cc1c(C)n(C(=O)c2ccc(C)cc2)c2ccc(OC)cc12	43.6	7.54	–	–
COc1ccc2c(c1)c(CC(=O)O)c(C)n2C(=O)c1ccc(C(F)(F)F)cc1	–	–	> 100	> 100
COc1ccc2c(c1)c1c(n2C(=O)c2cccc(C(F)(F)F)c2)CCC(C(=O)O)C1 (configuration not stated)	100	0.279	–	–
COc1ccc2c(c1)c(CC(=O)O)c(C)n2C(=O)c1cccc(C(F)(F)F)c1	19.5	2.44	–	–
COc1ccc2[nH]c(C)c(CC(=O)O)c2c1 [DESCHLOROBENZOYL INDOMETHACIN]	100	> 100	–	–
COc1ccc2c(c1)c(C)c(CCC(=O)NS(=O)(=O)c1ccc(OC(F)(F)F)cc1)n2C(=O)c1ccc(Cl)cc1	40.4	2.5	–	–
COc1ccc2c(c1)c(CCC(=O)O)c(C)n2C(=O)c1ccc(Cl)cc1	–	–	–	> 100
COC(=O)Cc1cn(C(=O)c2ccc(Cl)cc2)c2ccc(OC)cc12	> 100	11.3	–	–
COC(=O)Cc1c(C)n(C(=O)c2ccc(Cl)cc2)c2ccc(OC)cc12	> 100	5.67	–	–
COC(=O)Cc1c(C)n(C(=O)c2ccc(OC)cc2)c2ccc(OC)cc12	> 100	7.59	–	–
CCC(=O)Cc1cn(C(=O)OC)c2ccc(OC)cc12	> 100	22.8	–	–
COc1ccc2c(c1)c(C)c(CCC(=O)NS(=O)(=O)c1ccc(C(C)=O)cc1)n2C(=O)c1ccc(Cl)cc1	27.4	2.65	–	–
COc1ccc2c(c1)c(C)c(CCC(=O)NS(=O)(=O)c1ccc(C(F)(F)F)cc1)n2C(=O)c1ccc(Cl)cc1	33.7	1.11	–	–
COc1ccc2c(c1)c(C)c(CCC(=O)NS(=O)(=O)c1ccc3ccccc3c1)n2C(=O)c1ccc(Cl)cc1	72.3	2.54	–	–
COc1ccc2c(c1)c(CC(=O)O)c(C)n2C(=O)c1ccc(C)cc1	–	–	> 100	> 100
COc1ccc2c(c1)c(C)c(CCC(=O)NS(=O)(=O)c1ccc(C(C)C)cc1)n2C(=O)c1ccc(Cl)cc1	55.3	4.69	–	–
COc1ccc2c(c1)c(CC(=O)O)cn2C(=O)c1ccc(F)cc1	> 100	4.96	–	–

Continued, in another order:

IC50 [1] [µM]	IC50 [2] [µM]	Structure (SMILES)	IC50 [3] [µM]	IC50 [4] [µM]
13.5	0.29	Cc1c(CCC(=O)O)c2cc(F)ccc2n1C(=O)c1ccc(Cl)cc1	–	–
12.3	0.29	COc1ccc2c(c1)c(C)c(CC(C)C(=O)O)n2C(=O)c1ccc(Cl)cc1 (racemic)	–	–
39.9	3.97	COc1ccc2c(c1)c(CC(=O)NS(=O)(=O)c1ccc(Br)cc1)cn2C(=O)c1ccc(Cl)cc1	–	–
33	1.11	COc1ccc2c(c1)c(CC(=O)NS(=O)(=O)c1ccc(C#N)cc1)cn2C(=O)c1ccc(Cl)cc1	–	–
39.9	7.86	COc1ccc2c(c1)c(CC(=O)NS(=O)(=O)c1ccc(F)cc1)cn2C(=O)c1ccc(Cl)cc1	–	–
61	0.71	COc1ccc2c(c1)c(CC(=O)O)c(C)n2C(=O)c1ccc(F)cc1	–	–
100	2.4	CCC(=O)Cc1cn(C(=O)O)c2ccc(OC)cc12	–	–
9.82	0.12	COc1ccc2c(c1)c(C)c(CC(C)(C)C(=O)O)n2C(=O)c1ccc(Cl)cc1	–	–
16.7	12	COc1ccc2c(c1)c(CC(=O)NS(C)(=O)=O)cn2C(=O)c1ccc(Cl)cc1	–	–
100	5.21	COc1ccc2c(c1)c(CC(=O)O)cn2C(=O)c1cccc(C(F)(F)F)c1	–	–
15.1	3.73	COc1ccc2c(c1)c(CC(=O)NS(=O)(=O)c1ccc(Cl)s1)cn2C(=O)c1ccc(Cl)cc1	–	–
7.9	6.34	COc1ccc2c(c1)c(CC(=O)NS(=O)(=O)c1ccc(C(C)C)cc1)cn2C(=O)c1ccc(Cl)cc1	–	–
59.4	2.65	COc1ccc2c(c1)c(CC(=O)NS(=O)(=O)c1ccc(OC(F)(F)F)cc1)cn2C(=O)c1ccc(Cl)cc1	–	–
12.3	3.11	COc1ccc2c(c1)c(C)c(CCC(=O)NS(=O)(=O)c1ccc(C)cc1)n2C(=O)c1ccc(Cl)cc1	–	–
23.3	0.5	O=C(O)Cc1cn(C(=O)c2ccc(Cl)cc2)c2ccc(F)cc12	–	–
21.1	3.25	COc1ccc2c(c1)c(C)c(CCC(=O)NS(=O)(=O)c1ccccc1C)n2C(=O)c1ccc(Cl)cc1	–	–
–	2.52	COc1ccc2c(c1)c(CC(=O)NS(=O)(=O)c1ccc(Oc3ccccc3)cc1)cn2C(=O)c1ccc(Cl)cc1	–	–
38.2	2.07	COc1ccc2c(c1)c(CC(=O)NS(=O)(=O)c1ccc(C(F)(F)F)cc1)cn2C(=O)c1ccc(Cl)cc1	–	–
15.3	8.82	COc1ccc2c(c1)c(CC(=O)NS(=O)(=O)c1ccccc1C)cn2C(=O)c1ccc(Cl)cc1	–	–
39.9	5.8	COc1ccc(S(=O)(=O)NC(=O)Cc2cn(C(=O)c3ccc(Cl)cc3)c3ccc(OC)cc23)cc1	–	–
24	3.56	COc1ccc2c(c1)cc(C)n2C(=O)c1ccc(Cl)cc1	–	–
42.7	12.4	COc1ccc2c(c1)c(CC(=O)NS(=O)(=O)c1ccc(C)cc1)cn2C(=O)c1ccc(Cl)cc1	–	–
19.3	1.94	COc1ccc2c(c1)c(CC(=O)NS(=O)(=O)c1cc(C(F)(F)F)ccc1C(F)(F)F)cn2C(=O)c1ccc(Cl)cc1	–	–
116	5.53	COc1ccc2c(c1)c(C)c(CC(C)C(=O)NS(C)(=O)=O)n2C(=O)c1ccc(Cl)cc1 (configuration not stated)	–	–
7.84	2.23	Cc1c(CC(=O)O)c2cc(F)ccc2n1C(=O)c1cccc(C(F)(F)F)c1	–	–
45.1	0.14	COc1ccc(C(=O)n2c(C)c(CC(=O)O)c3cc(OC)ccc32)cc1	–	–
16.8	1.19	COc1ccc2c(c1)c(CC(=O)NS(=O)(=O)c1ccc3ccccc3c1)cn2C(=O)c1ccc(Cl)cc1	–	–
17.3	2.09	COc1ccc2c(c1)c(CC(=O)NS(=O)(=O)c1ccc(C(C)=O)cc1)cn2C(=O)c1ccc(Cl)cc1	–	–
48.2	0.34	COc1ccc2c(c1)c1c(n2C(=O)c2ccc(Cl)cc2)CC(C(=O)O)CC1 (configuration not stated)	–	–
65.4	2.24	COc1ccc2c(c1)c(CC(=O)NS(C)(=O)=O)c(C)n2C(=O)c1ccc(Cl)cc1	–	–
